Values of other authors in patent publication US20040033532A1, “Use of three-dimensional crystal structure coordinates to design and synthesize domain-selective inhibitors for angiotensin-converting enzyme (ACE)” (priority 2002, published 2004).
Entries after “also recorded” stand apart in the source; their conditions may differ. Read-outs that look alike come from different tables or passages of the source.

Tests used:
rabbit liver ACE = target: T1, rabbit liver ACE (Oryctolagus cuniculus, UniProt P12822)
T1 construct: rabbit liver ACE in vitro; from tissue; host or cells: rabbit liver
T1 sequence (P12822 34-1310): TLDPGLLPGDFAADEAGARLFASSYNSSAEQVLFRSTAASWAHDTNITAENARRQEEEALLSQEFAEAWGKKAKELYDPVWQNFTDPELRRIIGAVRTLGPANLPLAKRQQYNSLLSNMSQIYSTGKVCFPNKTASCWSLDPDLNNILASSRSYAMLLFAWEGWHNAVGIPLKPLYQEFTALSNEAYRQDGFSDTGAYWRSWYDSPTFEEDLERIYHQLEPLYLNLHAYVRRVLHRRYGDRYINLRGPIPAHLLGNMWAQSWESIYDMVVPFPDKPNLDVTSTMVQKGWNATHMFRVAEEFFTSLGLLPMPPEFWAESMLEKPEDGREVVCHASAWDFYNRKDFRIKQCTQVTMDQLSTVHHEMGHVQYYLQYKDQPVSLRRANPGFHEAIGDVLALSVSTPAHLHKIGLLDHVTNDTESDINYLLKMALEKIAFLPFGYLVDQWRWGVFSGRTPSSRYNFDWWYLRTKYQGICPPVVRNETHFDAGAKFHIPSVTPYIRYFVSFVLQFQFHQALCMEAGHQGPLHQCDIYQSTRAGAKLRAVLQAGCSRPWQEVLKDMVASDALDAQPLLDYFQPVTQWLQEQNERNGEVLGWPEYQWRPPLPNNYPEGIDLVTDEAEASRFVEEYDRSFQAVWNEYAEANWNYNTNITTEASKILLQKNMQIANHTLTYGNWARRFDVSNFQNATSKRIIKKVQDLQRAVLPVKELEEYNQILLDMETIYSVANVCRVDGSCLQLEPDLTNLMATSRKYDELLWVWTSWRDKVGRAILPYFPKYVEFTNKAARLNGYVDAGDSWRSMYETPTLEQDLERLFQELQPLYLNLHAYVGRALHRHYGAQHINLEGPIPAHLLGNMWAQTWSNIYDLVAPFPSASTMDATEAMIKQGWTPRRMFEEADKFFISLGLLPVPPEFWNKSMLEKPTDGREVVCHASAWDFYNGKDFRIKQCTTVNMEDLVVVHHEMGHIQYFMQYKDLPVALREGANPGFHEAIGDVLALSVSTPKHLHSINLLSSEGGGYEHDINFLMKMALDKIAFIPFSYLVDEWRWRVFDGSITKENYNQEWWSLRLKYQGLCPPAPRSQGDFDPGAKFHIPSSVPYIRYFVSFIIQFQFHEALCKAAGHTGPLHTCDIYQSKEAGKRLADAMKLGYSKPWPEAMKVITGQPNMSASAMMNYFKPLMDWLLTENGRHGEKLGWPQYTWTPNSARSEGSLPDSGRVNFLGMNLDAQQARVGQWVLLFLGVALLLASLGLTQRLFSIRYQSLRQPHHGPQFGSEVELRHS

ACE = ACE (Homo sapiens, UniProt P12821)
[1] = tested on: ACE N domain and C domain active sites; settings: N domain vs C domain

Sequence of ACE (P12821 30-1306, species assumed): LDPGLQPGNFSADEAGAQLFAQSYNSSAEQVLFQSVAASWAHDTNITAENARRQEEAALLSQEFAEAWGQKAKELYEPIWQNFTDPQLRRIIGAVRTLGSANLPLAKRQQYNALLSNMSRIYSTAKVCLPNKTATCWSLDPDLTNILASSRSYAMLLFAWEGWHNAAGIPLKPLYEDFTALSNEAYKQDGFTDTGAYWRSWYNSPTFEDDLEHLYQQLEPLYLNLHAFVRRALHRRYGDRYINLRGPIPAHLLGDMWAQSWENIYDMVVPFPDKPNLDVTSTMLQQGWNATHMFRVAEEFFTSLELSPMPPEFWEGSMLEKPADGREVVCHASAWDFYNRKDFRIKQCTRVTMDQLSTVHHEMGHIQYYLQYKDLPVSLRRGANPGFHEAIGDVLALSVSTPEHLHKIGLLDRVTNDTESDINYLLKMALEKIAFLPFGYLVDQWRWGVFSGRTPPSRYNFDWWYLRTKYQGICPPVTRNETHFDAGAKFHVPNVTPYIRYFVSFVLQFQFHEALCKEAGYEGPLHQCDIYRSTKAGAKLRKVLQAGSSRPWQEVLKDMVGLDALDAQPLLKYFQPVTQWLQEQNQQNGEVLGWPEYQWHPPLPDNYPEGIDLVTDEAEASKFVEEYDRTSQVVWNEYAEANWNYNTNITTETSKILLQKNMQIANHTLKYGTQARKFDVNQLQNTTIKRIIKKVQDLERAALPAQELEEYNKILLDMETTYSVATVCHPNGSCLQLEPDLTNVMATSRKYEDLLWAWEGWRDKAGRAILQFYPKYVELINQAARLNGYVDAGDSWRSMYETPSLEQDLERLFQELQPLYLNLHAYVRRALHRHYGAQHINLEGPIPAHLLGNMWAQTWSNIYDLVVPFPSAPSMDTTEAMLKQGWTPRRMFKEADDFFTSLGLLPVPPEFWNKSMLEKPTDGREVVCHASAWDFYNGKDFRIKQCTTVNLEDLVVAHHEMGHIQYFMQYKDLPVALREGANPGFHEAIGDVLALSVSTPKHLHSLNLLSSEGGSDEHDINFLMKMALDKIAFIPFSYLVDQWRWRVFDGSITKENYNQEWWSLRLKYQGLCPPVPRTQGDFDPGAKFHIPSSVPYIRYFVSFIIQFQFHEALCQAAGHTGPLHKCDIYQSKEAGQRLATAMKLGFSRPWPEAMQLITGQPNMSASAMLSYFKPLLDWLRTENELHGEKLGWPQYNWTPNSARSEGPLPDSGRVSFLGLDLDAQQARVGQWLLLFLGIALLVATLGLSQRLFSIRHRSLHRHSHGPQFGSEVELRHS

C[C@H](NC(=O)/C=C/c1ccccc1)C(=O)N1CCC[C@H]1C(=O)O [Compound 1]
IC50 (rabbit liver ACE; Hip-His-Leu hydrolysis, rabbit liver ACE, in vitro): 230000 nM
enzyme activity remaining (rabbit liver ACE; after 10 minutes of incubation with 0.4 mM of inhibitor): ~50%
recovery of enzyme activity after dialysis (rabbit liver ACE; after dialysis): could not be recovered

CN(CC(=O)NO)C(=O)[C@@H]1CCCC[C@@H]1C(=O)O [Compound 2]
IC50 (ACE; Hip-Gly-Gly as substrate): 7 nM
Ki (ACE; competitive inhibitor of ACE): 2.7 ± 0.2 nM

O=C(N[C@@H](Cc1ccccc1)C(=O)CCC(=O)N1CCC[C@H]1C(=O)O)c1ccccc1 [keto-ACE, Bz-Phe Ψ (CO—CH2)Gly-Pro]
domain selectivity of ACE inhibition (in words) [1]: more effective inhibitors of the C domain; also recorded: C-domain specific inhibitor

Ac-Asp-Phe-Ψ(PO2—CH2)-Ala-Ala-NH2
domain selectivity of ACE inhibition (in words) [1]: far better inhibitor of the N domain
domain selectivity of ACE inhibition (in words) ([1]; listed as Ac-Asp-Phe-Ψ(PO2—CH2)-Ala-Ala): far better inhibitor of the N-domain

Angiotensin (1-7) [Asp^1-Pro^7] (DRVYIHP; Angiotensin 1-7; UniProt P01019 25-31, looked up, fragment) [peptide Asp1-Pro7 of angiotensin]
domain selectivity of ACE inhibition (in words) [1]: more effective inhibitors of the C domain
